Source: patent EP0236948A2, “Novel compounds WK-142 and process for preparing the same” (KITASATO KENKYUSHO, priority 1986, dated 1987)
Non-standard residues stand in square brackets, D forms with d. Residues, ends and D or L forms follow the SMILES beside them. *: point of attachment. Sta = CC(C)C[C@H](N)[C@@H](O)CC(=O)O; Isovaleryl = CC(C)CC(=O)*

Legend:
[1] = biological target: T1, pepsin from coats of pig's stomach (Sus scrofa, UniProt P00791); experiment: Pepsin-inhibiting activity (method of Anson et al); assay type: biochemical; conditions: pepsin from coats of pig's stomach (P7012, Sigma)
T1 construct: using pepsin from coats of pig's stomach (P7012 manufactured by Sigma Chemical Inc.); purchased Sigma Chemical Inc. P7012; host or cells: pig stomach mucosa
Description: • (1) Pepsin-Inhibiting Activity: The pepsin-inhibiting activity was measured in terms of IC50 value according to the method of Anson et al [Journal of General Physiology 22, 79 (1938)] using pepsin from coats of pig's stomach (P7012 manufactured by Sigma Chemical Inc.).

[2] = system: renin obtained from pig's kidney; experiment: Renin-inhibiting activity (method of Ikeda et al); assay type: biochemical

T1 sequence (P00791 60-385): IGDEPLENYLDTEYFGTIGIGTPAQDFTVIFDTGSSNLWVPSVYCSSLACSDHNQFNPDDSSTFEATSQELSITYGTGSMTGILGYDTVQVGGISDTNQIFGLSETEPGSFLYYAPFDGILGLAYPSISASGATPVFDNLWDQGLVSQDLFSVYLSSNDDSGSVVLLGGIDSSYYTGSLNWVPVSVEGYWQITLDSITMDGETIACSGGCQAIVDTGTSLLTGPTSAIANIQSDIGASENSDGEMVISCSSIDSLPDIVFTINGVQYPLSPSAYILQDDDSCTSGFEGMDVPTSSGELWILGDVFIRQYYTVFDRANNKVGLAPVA

Structure (SMILES)	IC50 [1]	IC50 [2]
CC(C)CC(=O)NC(C(=O)NC(C(=O)NC(CC(C)C)C(O)CC(=O)NC(C)C(=O)NC(Cc1ccccc1)C(O)CC(=O)O)C(C)C)C(C)C (stereo not drawn) [compound A]	10 nM	–
CC(C)CC(=O)N[C@H](C(=O)N[C@H](C(=O)N[C@@H](CC(C)C)[C@@H](O)CC(=O)N[C@@H](C)C(=O)N[C@@H](CC(C)C)[C@@H](O)CC(=O)O)C(C)C)C(C)C [pepstatin A] (Isovaleryl-VV[Sta]A[Sta]-OH)	3 nM	470 nM
